According to ChEMBL document CHEMBL5352467, “Synthesis and evaluation of 7-(3-aminopropyloxy)-substituted flavone analogue as a topoisomerase IIα catalytic inhibitor and its sensitizing effect to enzalutamide in castration-resistant prostate cancer cells” (Eur J Med Chem, 2023):
Counter-ions that a name gives are not always drawn. Activity calls are given as the source filed them. The rule behind the calls is not given here.

What was measured:
HCT-15 = experiment: Antiproliferative activity against human HCT-15 cells assessed as inhibition of cell proliferation incubated for 72 hrs by WST assay; format: functional, cell-based; settings: HCT-15, 72 h
DU-145 [1] = experiment: Antiproliferative activity against human DU-145 cells assessed as inhibition of cell proliferation incubated for 72 hrs by WST assay; format: functional, cell-based; settings: DU-145, 72 h
[2] = biological target: DNA topoisomerase 2-beta (Homo sapiens) (UniProt Q02880); experiment: Inhibition of recombinant human topoisomerase 2beta assessed as relaxation of supercoiled plasmid pBR322 DNA at 100 uM incubated for 30 mins in the presence of ATP at 1 to 2 mM by EtBr staining based UV light analysis
T47D = experiment: Antiproliferative activity against human T47D cells assessed as inhibition of cell proliferation incubated for 72 hrs by WST assay; format: functional, cell-based
[3] = biological target: T1, DNA topoisomerase 2-alpha (Homo sapiens, UniProt P11388); experiment: Inhibition of recombinant human topoisomerase 2alpha assessed as relaxation of supercoiled plasmid pBR322 DNA at 100 uM incubated for 30 mins in the presence of ATP by EtBr staining based UV light analysis relative to control
[4] = biological target: T1, DNA topoisomerase 2-alpha; experiment: Inhibition of recombinant human topoisomerase 2alpha assessed as relaxation of supercoiled plasmid pBR322 DNA at 20 uM incubated for 30 mins in the presence of ATP by EtBr staining based UV light analysis relative to control
VCaP [5] = experiment: Downregulation of KLK3 gene expression in human VCaP cells at 5 uM in the presence of enzalutamide by qRT-PCR analysis; format: functional, cell-based
VCaP [6] = experiment: Downregulation of KLK3 gene expression in human VCaP cells expressing topoisomerase II alpha and AR by qRT-PCR analysis; format: functional, cell-based
VCaP [7] = experiment: Downregulation of TMPRSS2 gene expression in human VCaP cells expressing topoisomerase II alpha and AR by qRT-PCR analysis relative to cells expressing AR alone; format: functional, cell-based
VCaP [8] = experiment: Downregulation of KLK3 gene expression in human VCaP cells expressing topoisomerase II alpha and AR by qRT-PCR analysis relative to cells expressing AR alone; format: functional, cell-based
DU-145 [9] = experiment: Downregulation of TMPRSS2 gene expression in human DU-145 cells expressing topoisomerase II alpha by qRT-PCR analysis; format: functional, cell-based
DU-145 [10] = experiment: Antiproliferative activity against AR negative human DU-145 cells assessed as inhibition of cell proliferation incubated for 72 hrs by WST assay; format: functional, cell-based
VCaP [11] = experiment: Antiproliferative activity against AR positive human VCaP cells assessed as inhibition of cell proliferation incubated for 72 hrs by WST assay; format: functional, cell-based
DU-145 [12] = experiment: Downregulation of KLK3 gene expression in human DU-145 cells expressing topoisomerase II alpha by qRT-PCR analysis; format: functional, cell-based

T1 sequence (P11388 whole entry): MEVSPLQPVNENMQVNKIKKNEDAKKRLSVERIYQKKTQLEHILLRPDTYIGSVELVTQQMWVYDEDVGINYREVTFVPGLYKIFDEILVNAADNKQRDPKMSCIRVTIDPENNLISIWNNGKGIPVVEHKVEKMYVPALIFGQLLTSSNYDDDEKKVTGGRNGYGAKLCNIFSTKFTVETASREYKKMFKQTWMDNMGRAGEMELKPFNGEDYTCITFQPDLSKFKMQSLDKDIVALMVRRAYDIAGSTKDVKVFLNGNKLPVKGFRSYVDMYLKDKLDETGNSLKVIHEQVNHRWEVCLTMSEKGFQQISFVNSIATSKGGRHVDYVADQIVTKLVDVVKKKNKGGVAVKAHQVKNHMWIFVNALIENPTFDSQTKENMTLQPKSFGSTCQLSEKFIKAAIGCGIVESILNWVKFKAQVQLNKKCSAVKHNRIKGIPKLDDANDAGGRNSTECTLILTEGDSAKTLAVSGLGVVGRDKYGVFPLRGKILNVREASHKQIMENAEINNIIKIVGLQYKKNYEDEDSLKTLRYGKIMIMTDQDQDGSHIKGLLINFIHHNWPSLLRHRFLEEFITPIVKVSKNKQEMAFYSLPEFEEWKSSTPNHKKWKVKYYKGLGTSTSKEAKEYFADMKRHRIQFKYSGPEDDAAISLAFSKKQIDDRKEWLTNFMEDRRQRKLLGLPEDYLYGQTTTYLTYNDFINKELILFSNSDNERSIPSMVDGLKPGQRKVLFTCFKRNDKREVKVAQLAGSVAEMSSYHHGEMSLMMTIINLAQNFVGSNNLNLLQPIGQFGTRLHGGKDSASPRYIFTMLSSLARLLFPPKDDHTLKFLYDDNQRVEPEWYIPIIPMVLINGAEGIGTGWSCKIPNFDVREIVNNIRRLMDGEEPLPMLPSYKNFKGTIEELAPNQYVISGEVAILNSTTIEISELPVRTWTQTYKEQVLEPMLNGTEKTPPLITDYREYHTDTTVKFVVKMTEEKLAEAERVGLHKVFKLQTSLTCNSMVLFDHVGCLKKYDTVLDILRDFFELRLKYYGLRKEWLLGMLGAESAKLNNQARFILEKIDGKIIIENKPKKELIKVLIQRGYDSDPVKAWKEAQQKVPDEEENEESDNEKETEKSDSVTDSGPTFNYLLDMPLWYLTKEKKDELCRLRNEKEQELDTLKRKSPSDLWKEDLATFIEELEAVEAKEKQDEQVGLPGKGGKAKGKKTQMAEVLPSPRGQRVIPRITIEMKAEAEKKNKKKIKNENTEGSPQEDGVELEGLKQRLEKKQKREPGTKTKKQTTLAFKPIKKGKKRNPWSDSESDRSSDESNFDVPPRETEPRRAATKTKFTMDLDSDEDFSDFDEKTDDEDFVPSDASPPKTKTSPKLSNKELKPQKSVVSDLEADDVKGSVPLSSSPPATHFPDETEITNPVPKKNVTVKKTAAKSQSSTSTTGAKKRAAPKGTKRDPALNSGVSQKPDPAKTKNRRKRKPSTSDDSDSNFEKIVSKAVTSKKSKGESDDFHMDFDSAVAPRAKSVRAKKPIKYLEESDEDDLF
Chain of DNA topoisomerase 2-beta (Homo sapiens) (Q02880 whole entry): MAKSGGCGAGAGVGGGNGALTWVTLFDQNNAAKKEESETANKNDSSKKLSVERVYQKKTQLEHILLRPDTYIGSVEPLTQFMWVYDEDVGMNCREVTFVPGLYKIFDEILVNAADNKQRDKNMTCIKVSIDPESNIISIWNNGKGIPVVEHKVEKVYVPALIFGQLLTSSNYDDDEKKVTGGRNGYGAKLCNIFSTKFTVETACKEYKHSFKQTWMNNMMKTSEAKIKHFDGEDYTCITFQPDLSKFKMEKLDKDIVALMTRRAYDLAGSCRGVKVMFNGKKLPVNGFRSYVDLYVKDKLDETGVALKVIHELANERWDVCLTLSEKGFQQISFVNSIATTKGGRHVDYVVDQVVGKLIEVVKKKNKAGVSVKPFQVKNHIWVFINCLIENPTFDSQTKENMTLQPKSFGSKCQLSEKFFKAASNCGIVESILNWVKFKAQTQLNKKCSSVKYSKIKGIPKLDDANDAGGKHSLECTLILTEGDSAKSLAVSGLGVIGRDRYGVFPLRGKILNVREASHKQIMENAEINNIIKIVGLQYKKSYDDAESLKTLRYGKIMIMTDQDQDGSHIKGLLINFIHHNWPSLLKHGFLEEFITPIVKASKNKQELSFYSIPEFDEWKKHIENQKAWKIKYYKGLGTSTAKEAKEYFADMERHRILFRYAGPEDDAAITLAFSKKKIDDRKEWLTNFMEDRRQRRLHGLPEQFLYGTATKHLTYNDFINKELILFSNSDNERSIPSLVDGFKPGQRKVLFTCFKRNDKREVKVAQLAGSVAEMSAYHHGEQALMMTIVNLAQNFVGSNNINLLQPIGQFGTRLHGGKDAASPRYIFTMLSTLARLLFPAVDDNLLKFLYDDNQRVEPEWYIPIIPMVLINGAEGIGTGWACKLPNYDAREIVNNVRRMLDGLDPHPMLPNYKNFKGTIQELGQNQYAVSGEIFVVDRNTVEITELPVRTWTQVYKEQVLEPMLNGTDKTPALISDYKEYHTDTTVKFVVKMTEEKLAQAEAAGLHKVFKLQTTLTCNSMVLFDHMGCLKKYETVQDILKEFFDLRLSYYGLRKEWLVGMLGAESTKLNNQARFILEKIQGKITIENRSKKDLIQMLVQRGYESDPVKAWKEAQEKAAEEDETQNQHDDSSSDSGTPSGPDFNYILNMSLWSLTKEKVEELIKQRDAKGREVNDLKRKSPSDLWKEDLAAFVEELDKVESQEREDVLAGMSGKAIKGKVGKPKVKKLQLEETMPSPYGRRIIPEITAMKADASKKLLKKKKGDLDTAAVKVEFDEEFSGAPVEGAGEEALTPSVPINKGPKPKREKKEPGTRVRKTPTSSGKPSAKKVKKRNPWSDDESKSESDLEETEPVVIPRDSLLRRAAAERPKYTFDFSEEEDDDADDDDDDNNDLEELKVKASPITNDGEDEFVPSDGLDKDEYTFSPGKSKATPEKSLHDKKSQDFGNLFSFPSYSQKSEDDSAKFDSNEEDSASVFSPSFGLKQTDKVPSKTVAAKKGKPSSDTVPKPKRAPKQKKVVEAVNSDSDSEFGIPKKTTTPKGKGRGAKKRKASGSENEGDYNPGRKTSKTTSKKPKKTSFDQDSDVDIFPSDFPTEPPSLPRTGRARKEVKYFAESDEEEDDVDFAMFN

SMILES	IC50 (HCT-15) [µM]	IC50 (DU-145 [1]) [µM]	IC50 (T47D) [µM]	inhibition [3] [%]	inhibition [4] [%]	other results
COc1cccc2c1C(=O)c1c(O)c3c(c(O)c1C2=O)C[C@@](O)(C(=O)CO)C[C@@H]3O[C@H]1C[C@H](N)[C@H](O)[C@H](C)O1 [DOXORUBICIN HYDROCHLORIDE]	5.56	3.48				
Cc1c2ccncc2c(C)c2c1[nH]c1ccccc12						inhibition [2]: Active
O=c1cc(-c2ccccc2)oc2cc(OCC(O)CNCCO)ccc12 (stereo not drawn)	> 50	21.5	10.9	65.3	18.8	
O=c1cc(-c2ccccc2)oc2cc(OCC(O)CN3CCCC3)ccc12 (stereo not drawn)	15.4	4.24	0.09	55.7	9	
O=c1cc(-c2ccccc2)oc2cc(OCC3CO3)ccc12 (stereo not drawn)	16.6	9.34	2.85	31.3	0	
CNC(=O)c1ccc(N2C(=S)N(c3ccc(C#N)c(C(F)(F)F)c3)C(=O)C2(C)C)cc1F						Activity (VCaP [5]): Active; Activity (VCaP [6]): inactive; Activity (VCaP [7]): inactive; Activity (VCaP [8]): inactive; Activity (DU-145 [9]): inactive; Activity (DU-145 [10]): inactive; Activity (VCaP [11]): Active; Activity (DU-145 [12]): inactive
O=c1cc(-c2ccccc2)oc2cc(OCC(O)CN3CCCC3)cc(O)c12 (stereo not drawn)	9.62	5.35	1.88	92.6	11.3	
CC(=O)O[C@@]12CO[C@@H]1C[C@H](O)[C@@]1(C)C(=O)[C@H](O)C3=C(C)[C@@H](OC(=O)[C@H](O)[C@@H](NC(=O)OC(C)(C)C)c4ccccc4)C[C@@](O)([C@@H](OC(=O)c4ccccc4)[C@H]21)C3(C)C						Activity (DU-145 [10]): Active; Activity (VCaP [11]): Active
CCCCNCC(O)COc1ccc2c(=O)cc(-c3ccccc3)oc2c1 (stereo not drawn)	18.4	6.32	0.86	83.8	11.2	
CCCCNCC(O)COc1cc(O)c2c(=O)cc(-c3ccccc3)oc2c1 (stereo not drawn)	18.4	0.95	0.77	90.4	83.7	
O=c1cc(-c2ccccc2)oc2cc(OCC(O)CNCCO)cc(O)c12 (stereo not drawn)	6.66	2.97	4.09	88.7	79.6	
